In patent US20250282827A1, “LIPIDATED POLYMYXIN ANALOGUES” (priority 2021, published 2025):
≈ marks a conversion by molar mass, not a printed value. Read-outs that look alike come from different tables or passages of the source. Positions of bridges follow the written chain, without caps; N, C: chain ends. Non-standard residues stand in square brackets, D forms with d. Residues, ends and D or L forms follow the SMILES beside them. *: point of attachment. Ethyl(2-propionyloxy) = CCC(=O)OCC*; Ethyl(2-OPiv) = CC(C)(C)C(=O)OCC*; Ethyl(2-OBz) = O=C(OCC*)c1ccccc1; Dab = NCC[C@H](N)C(=O)O

How the values were obtained:
[1] = tested on: E. coli ATCC 25922; type: cell-based, Escherichia coli
From the text: (§1) All 81 compounds prepared in Examples 2 and 3 underwent screening against a panel of Gram-negative bacterium to assess their ability to inhibit bacterial growth. […] The median value is presented.

[2] = tested on: A. baumannii ATCC 19606; type: cell-based, Acinetobacter baumannii
From the text: as §1

[3] = tested on: P. aeruginosa ATCC 27853; type: cell-based, Pseudomonas aeruginosa
From the text: as §1

[4] = tested on: K. pneumoniae ATCC 33495; type: cell-based, Klebsiella pneumoniae
From the text: as §1

[5] = tested on: K. pneumoniae ATCC 700603; type: cell-based, Klebsiella pneumoniae
From the text: as §1

[6] = tested on: K. pneumoniae ATCC MS6671; type: cell-based, Klebsiella pneumoniae
From the text: as §1

[7] = tested on: E. coli ATCC MS8345; type: cell-based, Escherichia coli
From the text: as §1
Expansion of the polymyxin macrocycle by substituting […]) offered little advantage in antimicrobial activity but was generally well tolerated although for A. baumanni and P. aeruginosa this was detrimental.

[8] = tested on: Vero cell line; assay: Cellular toxicity against Vero cell line; type: cell-based
Description: (§2) FIG. 6 is a graph showing cell survival as a function of the indicated compound concentration. Data are representative of triplicate experiments.
(§3) To evaluate if the ClipPA modifications introduced any new toxicity, inhibitory concentrations against Vero and HaCaT cell lines were determined. […] The standard error for each measurement is shown.

[9] = tested on: HaCaT cell line; assay: Cellular toxicity against HaCaT cell line; type: cell-based
Description: as §2, §3

[10] = tested on: colistin-resistant E. coli; type: cell-based, Escherichia coli; conditions: colistin-resistant
From the text: (§4) Given the promising antimicrobial activity and low toxicity associated with compounds 29, 35 and to a lesser extent 38, these compounds were progressed to a further round of phenotypic antimicrobial susceptibility testing using a panel of clinically relevant multidrug resistant Gram-negative pathogens. This panel included isolates phenotypically characterised as carbapenem-resistant Enterobacteriacea (CRE), extended spectrum β-lactamase (ESBL) producing Enterobacteriacea, colistin-resistant E. coli, carbapenem-resistant Acinetobacter baumannii (CRAB) or carbapenem-resistant Pseudomonas aeruginosa (CRPA). These isolates were chosen because each was resistant to multiple different families of clinically used antibiotics making treatment options limited and importantly, each of these pathogen types are recognised as “Priority 1: CRITICAL” on the World Health Organization (WHO) priority pathogen list for R&D of new antibiotics. Antimicrobial activity against any of these pathogens would therefore be of clinical importance. […] However, we note that many of the compounds tested in Example 4 did show good activity against colistin-resistant E. coli.

[11] = tested on: carbapenem-resistant Acinetobacter baumannii (CRAB); type: cell-based; conditions: carbapenem-resistant (CRAB)
From the text: as §4

[12] = tested on: carbapenem-resistant Enterobacteriacea (CRE); type: cell-based
From the text: as §4

[13] = tested on: carbapenem-resistant Pseudomonas aeruginosa (CRPA); type: cell-based; conditions: carbapenem-resistant (CRPA)
From the text: as §4

[14] = tested on: kidney organoids derived from human induced pluripotent stem cells; assay: Nephrotoxicity on kidney organoids, renal tubule deterioration by bright field imaging; type: cell-based; conditions: scored after 48 h; note: key: 1 = unaffected; 2 = mild deterioration; 3 = severe deterioration; 4 = complete deterioration
Description: Selected polymyxin analogues were evaluated for cytotoxicity in physiologically relevant human kidney tissue, using kidney organoids derived from human induced pluripotent stem cells (Soo et al. 2018). Monolipidated analogues 29, 31, 33, containing a propyl, decyl or phenyl lipid, dilapidated compounds, 35, 38, 39, containing a propyl, tert-butyl or phenyl, lipid, respectively and the N-capped, di-lipidated (phenyl) 49 were selected.
The control compound polymyxin B and the seven ClipPA analogues were tested by adding a range of concentrations (based on Gallado-Godoy et al. 2016) to the organoids at day 12 of the protocol, shown previously to correspond to optimal maturity of the organoid tissues.
Toxicity was scored after 48 h for signs of renal tubule deterioration visible by bright field imaging (not shown).

Row | SMILES | MIC E. coli ATCC 25922 ([1]; ATCC 25922) | MIC A. baumannii ATCC 19606 ([2]; ATCC 19606) | MIC P. aeruginosa ATCC 27853 ([3]; ATCC 27853) | MIC K. pneumoniae ATCC 33495 ([4]; ATCC 33495) | MIC K. pneumoniae ATCC 700603 ([5]; ATCC 700603) | MIC K. pneumoniae ATCC MS6671 ([6]; ATCC MS6671) | MIC E. coli ATCC MS8345 ([7]; ATCC MS8345) | MIC [10] | MIC [11] | MIC ([12]; E. cloacae, IMP-4) | MIC ([12]; E. coli, NDM-1) | MIC ([12]; K. pneumoniae, KPC-2) | MIC ([12]; K. pneumoniae, NDM-5) | MIC [13] | further results
1 | CCC(=O)OCCSC[C@H](N)C(=O)N[C@@H](CCN)C(=O)N[C@H](C(=O)N[C@@H](CCN)C(=O)N[C@H]1CCNC(=O)[C@H]([C@@H](C)O)NC(=O)[C@H](CCN)NC(=O)[C@H](CCN)NC(=O)[C@H](CC(C)C)NC(=O)[C@@H](Cc2ccccc2)NC(=O)[C@H](CCN)NC1=O)[C@@H](C)O [Compound 29] (H-C(Ethyl(2-propionyloxy))[Dab]T[Dab][Dab][Dab][dF]L[Dab][Dab]T; lactam 5-C) | 2 µg/mL (≈ 1.58 µM) | 2 µg/mL (≈ 1.58 µM) | 2 µg/mL (≈ 1.58 µM) | 0.125 µg/mL (≈ 0.0987 µM) | 0.5 µg/mL (≈ 0.395 µM) | >32 µg/mL | 32 µg/mL (≈ 25.3 µM) | >32 µg/mL | 4 µg/mL (≈ 3.16 µM) | 2 µg/mL (≈ 1.58 µM) | 2 µg/mL (≈ 1.58 µM) | 2 µg/mL (≈ 1.58 µM) | 2 µg/mL (≈ 1.58 µM) | >32 µg/mL | IC50 Vero [8]: 2422 ± 38.98 µg/mL (≈ 1910 µM); amount required to cause inhibition [8]: > 500 µg/mL; fold less toxic towards Vero than Colistin or Polymyxin B [8]: ~2.5 fold; IC50 HaCaT [9]: 2534 ± 169.2 µg/mL (≈ 2000 µM); amount required to cause inhibition [9]: > 500 µg/mL; inhibitory effects against HaCaT compared with Colistin or Polymyxin B [9]: comparable
2 | CCC(=O)OCCSC[C@@H]1NC(=O)[C@@H](Cc2ccccc2)NC(=O)[C@H](CCN)NC(=O)[C@@H](NC(=O)[C@H](CCN)NC(=O)[C@@H](NC(=O)[C@H](CCN)NC(=O)[C@@H](N)CSCCOC(=O)CC)[C@@H](C)O)CCNC(=O)[C@H]([C@@H](C)O)NC(=O)[C@H](CCN)NC(=O)[C@H](CCN)NC1=O [Compound 35] (H-C(Ethyl(2-propionyloxy))[Dab]T[Dab][Dab][Dab][dF]C(Ethyl(2-propionyloxy))[Dab][Dab]T; lactam 5-C) | 0.5 µg/mL (≈ 0.369 µM) | 32 µg/mL (≈ 23.6 µM) | >32 µg/mL | 1 to 2 µg/mL | 1 µg/mL (≈ 0.737 µM) | >32 µg/mL | >32 µg/mL | >32 µg/mL | 8 µg/mL (≈ 5.9 µM) | 2 µg/mL (≈ 1.47 µM) | 2 µg/mL (≈ 1.47 µM) | 4 µg/mL (≈ 2.95 µM) | 4 µg/mL (≈ 2.95 µM) | >32 µg/mL | 
3 | C[C@@H](O)[C@@H]1NC(=O)[C@H](CCN)NC(=O)[C@H](CCN)NC(=O)[C@H](CSCCOC(=O)C(C)(C)C)NC(=O)[C@@H](Cc2ccccc2)NC(=O)[C@H](CCN)NC(=O)[C@@H](NC(=O)[C@H](CCN)NC(=O)[C@@H](NC(=O)[C@H](CCN)NC(=O)[C@@H](N)CSCCOC(=O)C(C)(C)C)[C@@H](C)O)CCNC1=O [Compound 38] (H-C(Ethyl(2-OPiv))[Dab]T[Dab][Dab][Dab][dF]C(Ethyl(2-OPiv))[Dab][Dab]T; lactam 5-C) | 0.5 µg/mL (≈ 0.354 µM) | 2 µg/mL (≈ 1.42 µM) | 4 µg/mL (≈ 2.83 µM) | 0.5 µg/mL (≈ 0.354 µM) | 0.5 µg/mL (≈ 0.354 µM) | >32 µg/mL | 16 µg/mL (≈ 11.3 µM) | 16 µg/mL (≈ 11.3 µM) | 2 µg/mL (≈ 1.42 µM) | 2 µg/mL (≈ 1.42 µM) | 2 µg/mL (≈ 1.42 µM) | 2 µg/mL (≈ 1.42 µM) | 2 µg/mL (≈ 1.42 µM) | >32 µg/mL | 
4 | C[C@@H](O)[C@@H]1NC(=O)[C@H](CCN)NC(=O)[C@H](CCN)NC(=O)[C@H](CSCCOC(=O)c2ccccc2)NC(=O)[C@@H](Cc2ccccc2)NC(=O)[C@H](CCN)NC(=O)[C@@H](NC(=O)[C@H](CCN)NC(=O)[C@@H](NC(=O)[C@H](CCN)NC(=O)[C@@H](N)CSCCOC(=O)c2ccccc2)[C@@H](C)O)CCNC1=O [Compound 39] (H-C(Ethyl(2-OBz))[Dab]T[Dab][Dab][Dab][dF]C(Ethyl(2-OBz))[Dab][Dab]T; lactam 5-C) |  |  |  |  |  |  |  |  |  |  |  |  |  |  | MIC E. coli ATCC 25922 ([1]; median of triplicate): 0.5 µg/mL (≈ 0.344 µM); MIC A. baumannii ATCC 19606 ([2]; median of triplicate): 2 µg/mL (≈ 1.38 µM); MIC P. aeruginosa ATCC 27853 ([3]; median of triplicate): 2 µg/mL (≈ 1.38 µM); MIC K. pneumoniae ATCC 33495 ([4]; median of triplicate): 0.5 µg/mL (≈ 0.344 µM); MIC K. pneumoniae ATCC 700603 ([5]; median of triplicate): 0.5 µg/mL (≈ 0.344 µM); MIC K. pneumoniae ATCC MS6671 ([6]; median of triplicate): >32 µg/mL; MIC E. coli ATCC MS8345 ([7]; colistin-resistant strain, median of triplicate): 4 µg/mL (≈ 2.75 µM); Score (nephrotoxicity on kidney organoids) ([14]; 100 μM): 1; Score (nephrotoxicity on kidney organoids) ([14]; 300 μM): 3; Score (nephrotoxicity on kidney organoids) ([14]; 1 mM): 4; fold more toxic compared to compound 29 ([8]; Vero cell line): ~5 fold; IC50 Vero ([8]; Vero cell line, ± standard error): 521.0 ± 17.05 µg/mL (≈ 359 µM); fold more toxic compared to compound 29 ([9]; HaCaT cell line): ~5 fold; IC50 HaCaT ([9]; HaCaT cell line, ± standard error): 657.7 ± 87.51 µg/mL (≈ 453 µM)
